Laboratory results: US20130184257A1, “PIPERIDINYL-SUBSTITUTED LACTAMS AS GPR119 MODULATORS” (priority 2010, published 2013)

Test system: modified version of the GPR119 receptor (94% identity to human receptor) stably expressed in HEK-293 cells
Test: cAMP Production Assay (LANCE cAMP kit, TR-FRET)
Type: cell-based
Details: for cAMP production in HEK-293 cells: HEK-293 cells expressing modified GPR119, test compounds 0.2 nM to 10 μM, one-hour incubation at ambient temperature; for Fold over baseline: increase in cAMP relative to basal levels, 1.5-fold or greater = agonist activity
Method: The assay utilized HEK-293 cells that stably express a modified version of the GPR119 receptor (94% identity to human receptor), under the control of a CMV promoter containing a tet-on element for tetracycline-inducible expression. GPR119 agonist-induced cyclic AMP (cAMP) production was measured in this cell line using the LANCE cAMP kit (Perkin Elmer, Waltham, Mass.). To generate a working stock of cells for the assay, cells were treated overnight with 1 μg/mL doxycycline at 37° C. in the presence of 5% CO2 to induce receptor expression. Cells were then harvested by enzymatic dissociation with 0.05% trypsin, resuspended in freezing medium (DMEM growth medium with 10% each of fetal bovine serum and DMSO), aliquoted and frozen at −80° C. On the day of the assay, frozen cells were thawed, washed 1× in PBS and resuspended in Hank's buffered salt solution (HBSS) containing 5 mM HEPES, 0.1% BSA and Alexa Fluor 647-conjugated anti-cAMP antibody (diluted 1:100). The cell suspension was then transferred to a Proxiplate Plus white 384-well assay plate (Perkin-Elmer) at 2000 cells/well. Test compounds at final concentrations ranging from 0.2 nM to 10 μM were added to the assay plate, followed by a one-hour incubation at ambient temperature (volume=10 μL/well). DMSO concentration was held constant at 0.5%. After incubation with test compounds, 10 μL of a detergent buffer containing a biotinylated cAMP/Europium-conjugated streptavidin complex (Europium-labeled cAMP tracer) were added to each well on the assay plate, followed by a 2-hour incubation at ambient temperature. During this incubation cAMP released from lysed cells competes with the Europium-labeled cAMP tracer for binding to the Alexa Fluor 647-conjugated antibody. […] Cellular cAMP levels were then determined by interpolation of raw signal data using a cAMP standard curve. Compounds were determined to have agonist activity if they stimulated a 1.5-fold or greater increase in cAMP relative to basal levels.

SMILES	cAMP production in HEK-293 cells [nmol]	Fold over baseline
CS(=O)(=O)c1ccc(N[C@H]2CCN(C3CCN(c4noc(C(Cl)(Cl)Cl)n4)CC3)C2=O)c(F)c1 [Example 13, (S)-3-(2-fluoro-4-(methylsulfonyl)phenylamino)-1-(1-(5-(trichloromethyl)-1,2,4-oxadiazol-3-yl)piperidin-4-yl)pyrrolidin-2-one]	17.3	3.0
CC(C)c1noc(N2CCC(N3CC[C@H](Oc4ccc(S(C)(=O)=O)cc4F)C3=O)CC2)n1 [Example 2, (S)-3-(2-fluoro-4-(methylsulfonyl)phenoxy)-1-(1-(3-isopropyl-1,2,4-oxadiazol-5-yl)piperidin-4-yl)pyrrolidin-2-one]	27.4	5.6
CS(=O)(=O)c1cc(F)c(O[C@H]2CCN(C3CCN(c4nc(C(F)(F)F)no4)CC3)C2=O)cc1F [Example 11, (S)-1-(1-(3-trifluoromethyl-1,2,4-oxadiazol-5-yl)piperidin-4-yl)-3-(2,5-difluoro-4-(methylsulfonyl)phenoxy)pyrrolidin-2-one]	13.5	4.0
CS(=O)(=O)c1ccc(N[C@H]2CCN(C3CCN(c4noc(C5CC5)n4)CC3)C2=O)c(F)c1 [Example 45, (S)-1-(1-(5-cyclopropyl-1,2,4-oxadiazol-3-yl)piperidin-4-yl)-3-(2-fluoro-4-(methylsulfonyl)-phenylamino)-pyrrolidin-2-one]	13.3	5.3
CS(=O)(=O)c1cc(F)c(N[C@H]2CCCN(C3CCN(c4nc(C(F)(F)F)no4)CC3)C2=O)c(F)c1 [Example 10, (S)-3-(2,6-difluoro-4-(methylsulfonyl)phenylamino)-1′-(3-trifluoromethyl-1,2,4-oxadiazol-5-yl)-1,4′-bipiperidin-2-one]	8.3	2.9
CCCc1nc(N2CCC(N3CC[C@H](Nc4ccc(S(C)(=O)=O)cc4F)C3=O)CC2)no1 [Example 37]	12.2	3.7
CC(C)c1nc(N2CCC(N3CCC[C@H](Nc4ccc(S(C)(=O)=O)cc4F)C3=O)CC2)no1 [Example 14, (S)-3-(2-fluoro-4-(methylsulfonyl)phenylamino)-1′-(5-isopropyl-1,2,4-oxadiazol-3-yl)-1,4′-bipiperidin-2-one]	18.9	3.5
CS(=O)(=O)c1cc(F)c(O[C@H]2CCN(C3CCN(c4noc(-c5ccccc5)n4)CC3)C2=O)cc1F [Example 17, (S)-3-(2,5-difluoro-4-(methylsulfonyl)phenoxy)-1-(1-(5-phenyl-1,2,4-oxadiazol-3-yl)piperidin-4-yl)pyrrolidin-2-one]	28.3	4.8
CC(F)(F)c1nc(N2CCC(N3CCC[C@H](Oc4cc(F)c(S(C)(=O)=O)cc4F)C3=O)CC2)no1 [Example 55, (S)-3-(2,5-difluoro-4-(methylsulfonyl)phenoxy)-1′-(5-(1,1-difluoroethyl)-1,2,4-oxadiazol-3-yl)-[1,4′-bipiperidin]-2-one]	17.3	3.7
CS(=O)(=O)c1cc(F)c(N[C@H]2CCN(C3CCN(c4nc(C(F)(F)F)no4)CC3)C2=O)c(F)c1 [Example 60, (S)-3-((2,6-difluoro-4-(methylsulfonyl)phenyl)amino)-1-(1-(3-(trifluoromethyl)-1,2,4-oxadiazol-5-yl)piperidin-4-yl)pyrrolidin-2-one]	18.1	3.8
CC(C)(C)c1noc(N2CCC(N3CC[C@H](Oc4ccc(S(C)(=O)=O)cc4F)C3=O)CC2)n1 [Example 5, (S)-1-(1-(3-tert-butyl-1,2,4-oxadiazol-5-yl)piperidin-4-yl)-3-(2-fluoro-4-(methylsulfonyl)phenoxy)pyrrolidin-2-one]	22.7	4.8
CC(C)(F)c1nc(N2CCC(N3CC[C@H](Nc4ccc(S(C)(=O)=O)cc4F)C3=O)CC2)no1 [Example 42, (S)-3-(2-fluoro-4-(methylsulfonyl)-phenylamino)-1-(1-(5-(2-fluoropropan-2-yl)-1,2,4-oxadiazol-3-yl)piperidin-4-yl)pyrrolidin-2-one]	12.5	5.1
CS(=O)(=O)c1ccc(N[C@H]2CCN(C3CCN(c4noc(C(F)(F)F)n4)CC3)C2=O)cn1 [Example 57, (S)-3-((6-(methylsulfonyl)pyridin-3-yl)amino)-1-(1-(5-(trifluoromethyl)-1,2,4-oxadiazol-3-yl)piperidin-4-yl)pyrrolidin-2-one]	27.2	3.7
CS(=O)(=O)c1ccc(N[C@H]2CCN(C3CCN(c4noc(C(F)F)n4)CC3)C2=O)cn1 [Example 58]	15.8	2.6
CS(=O)(=O)c1ccc(N[C@H]2CCN(C3CCN(c4noc(C5CCCC5)n4)CC3)C2=O)c(F)c1 [Example 43, (S)-1-(1-(5-cyclopentyl-1,2,4-oxadiazol-3-yl)piperidin-4-yl)-3-(2-fluoro-4-(methylsulfonyl)-phenylamino)-pyrrolidin-2-one]	14.7	3.6
CS(=O)(=O)c1cc(F)c(N[C@H]2CCN(C3CCN(c4nc(C(F)(F)F)no4)CC3)C2=O)cc1F [Example 59, (S)-3-((2,5-difluoro-4-(methylsulfonyl)phenyl)amino)-1-(1-(3-(trifluoromethyl)-1,2,4-oxadiazol-5-yl)piperidin-4-yl)pyrrolidin-2-one]	25.7	3.9
CS(=O)(=O)c1ccc(O[C@H]2CCN(C3CCN(c4noc(C(F)(F)F)n4)CC3)C2=O)cn1 [Example 56, (S)-3-((6-(methylsulfonyl)pyridin-3-yl)oxy)-1-(1-(5-(trifluoromethyl)-1,2,4-oxadiazol-3-yl)piperidin-4-yl)pyrrolidin-2-one]	21.1	3.3
CC(C)c1nc(N2CCC(N3CC[C@H](Oc4c(F)cc(S(C)(=O)=O)cc4F)C3=O)CC2)no1 [Example 20, (S)-3-(2,6-difluoro-4-(methylsulfonyl)phenoxy)-1-(1-(5-isopropyl-1,2,4-oxadiazol-3-yl)piperidin-4-yl)pyrrolidin-2-one]	19.4	3.7
CC(C)c1noc(N2CCC(N3CC[C@H](Oc4cc(F)c(S(C)(=O)=O)cc4F)C3=O)CC2)n1 [Example 1, (S)-3-(2,5-difluoro-4-(methylsulfonyl)phenoxy)-1-(1-(3-isopropyl-1,2,4-oxadiazol-5-yl)piperidin-4-yl)pyrrolidin-2-one]	25.0	4.6
CC(F)(F)c1noc(N2CCC(N3CC[C@H](Oc4cc(F)c(S(C)(=O)=O)cc4F)C3=O)CC2)n1 [Example 63, (S)-3-(2,5-difluoro-4-(methylsulfonyl)phenoxy)-1-(1-(3-(1,1-difluoroethyl)-1,2,4-oxadiazol-5-yl)piperidin-4-yl)pyrrolidin-2-one]	21.6	3.6
CC(F)(F)c1nc(N2CCC(N3CC[C@H](Nc4c(F)cc(S(C)(=O)=O)cc4F)C3=O)CC2)no1 [Example 65, (S)-3-((2,6-difluoro-4-(methylsulfonyl)phenyl)amino)-1-(1-(5-(1,1-difluoroethyl)-1,2,4-oxadiazol-3-yl)piperidin-4-yl)pyrrolidin-2-one]	16.1	2.6
CS(=O)(=O)c1ccc(N[C@H]2CCN(C3CCN(c4noc(-c5ccccn5)n4)CC3)C2=O)c(F)c1 [Example 38, (S)-3-(2-fluoro-4-(methylsulfonyl)-phenylamino)-1-(1-(5-(pyridin-2-yl)-1,2,4-oxadiazol-3-yl)piperidin-4-yl)pyrrolidin-2-one]	9.0	3.5
CC(C)c1nc(N2CCC(N3CC[C@H](Oc4ccc(S(C)(=O)=O)cc4F)C3=O)CC2)no1 [Example 18, (S)-3-(2-fluoro-4-(methylsulfonyl)phenoxy)-1-(1-(5-isopropyl-1,2,4-oxadiazol-3-yl)piperidin-4-yl)pyrrolidin-2-one]	19.4	3.7
CS(=O)(=O)c1ccc(N[C@H]2CCN(C3CCN(c4noc(C5CCC5)n4)CC3)C2=O)c(F)c1 [Example 40, (S)-1-(1-(5-cyclobutyl-1,2,4-oxadiazol-3-yl)piperidin-4-yl)-3-(2-fluoro-4-(methylsulfonyl)-phenylamino)pyrrolidin-2-one]	17.5	5.7
